Consider four molecules from paper PMC4947907, “Lupin Peptides Modulate the Protein-Protein Interaction of PCSK9 with the Low Density Lipoprotein Receptor in HepG2 Cells” (Scientific Reports, 2016).

No end group written: not given here.

Data set [1] relates to PCSK9-LDLR interaction. Particulars: ref 23 (Zhang and coworkers); read-out: IC50, PCSK9-LDLR inhibition; cited from earlier work. An excerpt:
P5 is thus one of the shortest peptides ever described in literature endowed with this specific activity.

Data set [2] deals with T1, PCSK9-LDLR interaction (recombinant His-tagged PCSK9 / recombinant LDLR-AB domain) (Homo sapiens, UniProt Q8NBP7).
T1 construct: purchased CycLex Co., Nagano, Japan
T1 sequence (Q8NBP7 153-692): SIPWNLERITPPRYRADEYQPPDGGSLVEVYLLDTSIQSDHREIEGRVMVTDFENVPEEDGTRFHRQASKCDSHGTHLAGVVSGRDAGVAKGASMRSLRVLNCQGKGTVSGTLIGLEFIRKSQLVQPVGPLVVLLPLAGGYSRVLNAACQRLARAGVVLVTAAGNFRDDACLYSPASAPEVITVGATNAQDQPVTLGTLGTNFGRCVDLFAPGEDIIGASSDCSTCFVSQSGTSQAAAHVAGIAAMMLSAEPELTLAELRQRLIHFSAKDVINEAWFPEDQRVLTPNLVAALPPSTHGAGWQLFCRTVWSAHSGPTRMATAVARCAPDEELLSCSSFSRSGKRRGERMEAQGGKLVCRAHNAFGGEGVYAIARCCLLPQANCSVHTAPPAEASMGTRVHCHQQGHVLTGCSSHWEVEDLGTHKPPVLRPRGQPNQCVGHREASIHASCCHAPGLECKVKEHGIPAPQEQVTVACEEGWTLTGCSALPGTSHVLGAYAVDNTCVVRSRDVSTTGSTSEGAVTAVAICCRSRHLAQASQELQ
T1 sequence (Q8NBP7 31-152 partner limits assumed): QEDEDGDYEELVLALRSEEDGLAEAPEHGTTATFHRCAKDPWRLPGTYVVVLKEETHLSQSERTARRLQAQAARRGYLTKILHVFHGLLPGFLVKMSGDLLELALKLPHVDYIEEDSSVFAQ
Nature of the data set: In vitro PCSK9-LDLR binding assay (solid-phase, CycLex). The following applies: synthetic peptide, absorbance 450 nm versus vehicle, average ± SEM of three independent experiments in duplicate.
Method: In vitro experiments were performed using a solid-phase binding assay between recombinant His-tagged PCSK9 and recombinant LDLR-AB domain.
The commercial assay provides a plate pre-coated with a recombinant LDLR-AB domain, which is the PCSK9 binding site. For screening direct inhibitors of the PCSK9-LDLR interaction, lupin peptides were added to the proper amount of His-tagged PCSK9 in each well coated with LDLR-AB domain. Biotinylated anti-His-tag monoclonal antibody specifically reacted with recombinant His-tagged PCSK9 trapped with LDLR-AB domain immobilized on the microplate surface. The inhibitory effects were analyzed measuring the amount of His-tagged PCSK9 on the well. In particular, the inhibitory effect, calculated as % PCSK9-LDLR binding inhibition, determines a reduction of absorbance measured at 450 nm using the Synergy H1 fluorescent plate reader from Biotek versus vehicle control. Data points represent averages ± SEM of three independent experiments in duplicate. ***p < 0.0001 **p < 0.001 versus C.
The employed assay provides a plate pre-coated with a recombinant LDLR-AB domain, which is the PCSK9 binding site. For screening, the peptides were added to proper amount of His-tagged PCSK9 in each well coated with LDLR-AB domain. Biotinylated anti-His-tag monoclonal antibody specifically reacts with recombinant His-tagged PCSK9 trapped with LDLR-AB domain immobilized on the microplate surface. […] Data points represent averages ± SEM of three independent experiments in duplicate. *p < 0.05 **P < 0.001 versus C.
P-tot peptides (1.0 and 2.5 μg/μl), T-tot peptides (0.5 and 1.0 μg/μl), P-abs (12.5 ng/μl) and T-abs peptides (16.0 ng/μl) were tested using the in vitro PCSK9-LDLR binding assay (CycLex Co., Nagano, Japan) following the manufacture instructions. […] The reaction was stopped with 2.0 N sulfuric acid and the absorbance at 450 nm was measured using the Synergy H1 fluorescent plate reader (Biotek, Bad Friedrichshall, Germany).
The absorbance at 450 nm was measured using the Synergy H1 fluorescent plate reader (Biotek, Bad Friedrichshall, Germany).

Data set [3] concerns Caco-2 cells. The data set is described as follows: Absorption in differentiated Caco-2 cells grown in two-compartment system; peptides identified/quantified in basolateral solution. Particulars: Caco-2 AP to BL, 4 h. It is filed as in vitro ADME, human. An excerpt:
Lupin protein consumption provides some health benefits in the area of hypercholesterolemia prevention. Studies in animal models[31][32] and in the clinics[33][34] have shown that the protein itself is a main hypocholesterolemic agent. […] Another investigation in human Caco-2 cells has provided evidence that at least some of these peptic and tryptic peptides may be absorbed in the small intestine, since they are transferred from the apical (AP) to the basolateral (BL) compartment in differentiated Caco-2 cells grown in a two-compartment system.
Precisely, Caco-2 cells have been incubated for 4 h in the AP chamber with 500 μl of a 1.0 μg/μl solution of P-tot or T-tot peptides and, at the end of treatment, BL solutions (700 μl) have been collected and absorbed peptic and tryptic peptides identified by HPLC-Chip ESI-MS/MS[37]. The BL solutions were then dried and diluted to 100 μl to obtain the solutions P-abs and T-abs at the concentration of 0.25 and 0.32 μg/μl, respectively. Both solutions were used for the present experiments.
The peptic (P-tot) and tryptic (T-tot) hydrolyzates from lupin protein are the same used in a previous paper, in which their capability to modulate cholesterol metabolism in HepG2 cells was investigated. […]

The target of data set [4] is recombinant His-tagged PCSK9 wild type (proprotein convertase subtilisin/kexin type 9) (human, UniProt Q8NBP7 153-692, Limits of the kit protein are not printed. Taken as secreted, autocleaved PCSK9: prodomain 31-152 non-covalently bound to mature chain 153-692, from UniProt features. His tag omitted.). The data set is described as follows: ELISA; CycLex in vitro PCSK9-LDLR binding assay: plate pre-coated with LDLR-AB domain; His-tagged PCSK9 added with vehicle or synthetic peptides T9 (32-320 uM) or P5 (0.001-100 uM), 2 h at room temperature; bound PCSK9 detected with biotinylated anti-His-tag antibody, absorbance at 450 nm. Particulars: both partners purified.
Chain of recombinant His-tagged PCSK9 wild type (proprotein convertase subtilisin/kexin type 9) (Q8NBP7 153-692): as the sequence (Q8NBP7 153-692) above

Take Ac-TVFTSWEEYLDWV-amide [Pep2-8]: in data set [1], the IC50 is 810 ± 80 nM.

For the molecule `CC[C@H](C)[C@H](NC(=O)[C@@H](NC(=O)CNC(=O)[C@H](CCC(=O)O)NC(=O)[C@H](CC(=O)O)NC(=O)[C@H](CCC(N)=O)NC(=O)[C@H](Cc1c[nH]cn1)NC(=O)[C@H](CO)NC(=O)[C@H](CCC(N)=O)NC(=O)[C@H](CCC(=O)O)NC(=O)[C@H](CCC(N)=O)NC(=O)CN)C(C)C)C(=O)N[C@H](C(=O)N[C@@H](CCCNC(=N)N)C(=O)O)C(C)C` [Peptide T9], the inhibition at 32 µM in data set [2] (32 μM) stood at 19 ± 8.47%. The inhibition at 160 µM in data set [2] (160 μM) came to 33 ± 5.33%. For the same molecule, in data set [2] ([…] μM), the inhibition at 320 µM was determined as 53 ± 1.02%.

As for LILPKHSDAD [Peptide P5], the “P5 concentration in the P-abs solution” value in data set [3] (AP 500 μl of 1.0 μg/μl P-tot, BL solution (700 μl) dried and diluted to 100 μl, HPLC-MS/MS m/z 554.8 → 770.0, external calibration with synthetic standard, three injections) came out at 28.64 ± 0.43 ng/µL. In addition, the “P5 share of total peptic peptides absorbed by Caco-2 cells” value in data set [3] (P-abs sample, HPLC-MS/MS) was 11.5%.

B1: P5 (peptide)
peptide: LILPKHSDAD
notes: peptic peptide of Lupinus albus β2-conglutin (beta-conglutin precursor); source: synthetic peptide (PRIMM, Milan), >95% pure by HPLC
Consider B1, for which, in data set [4], the IC50 is 1600 nM.
